Results: article PMC7782499, “Progerinin, an optimized progerin-lamin A binding inhibitor, ameliorates premature senescence phenotypes of Hutchinson-Gilford progeria syndrome” (Communications Biology, 2021)
Where “and” joins values, the source holds several entries; their conditions need not be identical. Identical values can stand only once.

Target: T1, progerin (Homo sapiens, UniProt P02545)
T1 sequence (P02545 1-614 isoform P02545-6): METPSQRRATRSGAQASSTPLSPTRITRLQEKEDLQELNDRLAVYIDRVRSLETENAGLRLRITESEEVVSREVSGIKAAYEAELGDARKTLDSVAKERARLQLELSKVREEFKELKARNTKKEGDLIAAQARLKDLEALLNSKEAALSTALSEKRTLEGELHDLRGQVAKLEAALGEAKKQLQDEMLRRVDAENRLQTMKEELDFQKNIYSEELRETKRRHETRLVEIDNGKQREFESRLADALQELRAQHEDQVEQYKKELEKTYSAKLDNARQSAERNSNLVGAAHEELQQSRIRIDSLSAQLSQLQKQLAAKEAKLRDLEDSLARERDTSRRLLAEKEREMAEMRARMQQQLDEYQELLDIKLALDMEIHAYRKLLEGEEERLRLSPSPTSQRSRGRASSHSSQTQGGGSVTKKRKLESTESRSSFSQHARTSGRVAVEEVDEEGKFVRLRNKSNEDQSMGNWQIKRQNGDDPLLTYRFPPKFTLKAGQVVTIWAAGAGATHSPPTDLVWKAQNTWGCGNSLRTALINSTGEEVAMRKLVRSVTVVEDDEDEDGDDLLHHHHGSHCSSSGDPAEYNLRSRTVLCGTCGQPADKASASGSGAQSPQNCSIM
Experiment: Progerin expression in HGPS patient cells (western blot, immunostaining)
Type: cell-based
Design: host or cells: HGPS patient fibroblasts
Details: for Progerin intensity after treatment with chemicals, Ave: average; for Progerin intensity after treatment with chemicals: single replicates
Protocol: Fig. 1 SLC-D011 ameliorates premature aging features of HGPS. A. HEK293 cells were transiently transfected with expression vector encoding wild-type lamin A (WT-LA), lamin A-C661A (LA-C661A), progerin, or progerin-C611A. LA-C661A or progerin-C611A with point mutation in CaaX motif was predicted to be lack of farnesylation, […] that of authentic WT-LA or progerin. GFP-conjugated empty expression vector was used as a negative control. Cells were visualized at 24 h after transfection. B Transient transfection of HEK293 cells with expression vector encoding progerin or progerin-G611A leads to reduced expression of H3K9me3 (n = 3 independent experiments; two-tailed Student’s t test). C. JH4 derivatives (JH010 and SLC-D011(D011)) inhibit lamin A and progerin interaction. For binding inhibition assay, bead-conjugated lamin A (GST-LA) was incubated with HEK293 cells, transiently transfected with GFP-progerin (PG), and treated with indicated chemicals. Actin was used as a loading control. PPT, co-precipitated materials with recombinant proteins; Sup supernatant. 5 μM of each chemical was used for binding assay. […] H3K9me3 reduction is a well-known marker for premature aged cells. Thus, H3K9me3 expression was evaluated by immunostaining. […] E SLC-D011 obviously suppresses progerin expression. […] F SLC-D011 reduces the expression of progerin in other HGPS cells (AG11513 and AG11498, Coriell Cell Repositories). […] G JH4, JH010, and SLC-D011 promote cell proliferation. Cell viability was determined by MTT assay after incubation with chemicals for 7 days (n = 3 independent experiments; two-tailed Student’s t test). H JH4, JH010, and SLC-D011 show similar activity for ameliorating nuclear deformation. After incubation with chemicals for 7 days, cells were stained with progerin and H3K9me3 antibodies (n = 3 independent experiment; two-tailed Student’s t test), **p < 0.001. Data are reported as mean ± SD. “Con” means Dimethyl sulfoxide (DMSO)-treated control. The data are normalized to DMSO-treated cells.
Protein was extracted from cells using a radioimmunoprecipitation assay (RIPA) buffer (50 mM Tris-Cl, pH 7.5, 150 mM NaCl, 1% NP-40, 0.1% SDS, and 10% sodium deoxycholate). Samples were separated by sodium dodecyl sulfate-polyacrylamide gel electrophoresis (SDS-PAGE) and transferred to polyvinylidene difluoride (PVDF) membranes. Blotted membranes were blocked with 3% skimmed milk in TBS-T buffer (20 mM Tris pH 7.6, 150 mM NaCl, and 0.05% Tween 20) for 1 h followed by incubation with specific primary antibodies. Horseradish peroxidase (HRP)-conjugated goat anti-mouse, goat anti-rabbit, and mouse anti-goat IgG antibodies (Pierce, Thermo Fisher Scientific, Inc., Rockford, IL, USA) were used as secondary antibodies. Peroxidase activity was detected by chemiluminescence using an ECL kit (Intron, Seoul, Korea) following the manufacturer’s instructions. Bands were quantified using Image J software (National Institute of Health, NIH).
Cells were cultured on coverslips, washed with PBS, fixed with 4% paraformaldehyde (PFA) for 30 min at RT, and then permeabilized with 0.2% Triton X-100 at RT for 5 min. After treatment with blocking solution (anti-Human antibody diluted 1:400 in PBS) for 1 h, cells were incubated with anti-lamin A/C (1:400), anti-progerin (1:100), Ki67 (1:200), and anti-H3K9me3 (1:200) in blocking buffer overnight at 4 °C. Finally, cells were incubated with fluorescein isothiocyanate and rhodamine-conjugated secondary antibodies at 4 °C for 7 h. Nuclei were stained with DAPI (4, 6-diamidino-2-phenylindole) at RT for 10 min. After cells were washed three times with PBS, coverslips were mounted with mounting solution (H-5501; Vector Laboratories, Burlingame, CA, USA). Immunofluorescence signal was detected with a fluorescence microscopy (Zeiss and Logos).
Fig. S7. Therapeutic effect of SLC-D011 at a low concentration. […]
AG11513; B) dose-dependently. […]

CC1(C)Oc2cc3oc(=O)ccc3cc2C[C@@H]1OC/C=C/c1ccccc1 [SLC-D011]
Progerin intensity after treatment with SLC-D011, Ave (AG03198, 10nM, average (Fig S7C)): 7.117 AU | Progerin intensity after treatment with SLC-D011 (AG03198, 10nM, single replicates (Fig S7C)): 5.32 AU and 7.51 AU and 8.52 AU | Progerin intensity after treatment with SLC-D011, Ave (AG03198, 50nM, average (Fig S7C)): 3.183 AU | Progerin intensity after treatment with SLC-D011 (AG03198, 50nM, single replicates (Fig S7C)): 2.38 AU and 3.11 AU and 4.06 AU | Progerin intensity after treatment with SLC-D011, Ave (AG03198, 100nM, average (Fig S7C)): 1.91 AU | Progerin intensity after treatment with SLC-D011 (AG03198, 100nM, single replicates (Fig S7C)): 2.22 AU and 1.69 AU and 1.82 AU | Progerin intensity after treatment with SLC-D011, Ave (AG03198, 500nM, average (Fig S7C)): 1.503 AU | Progerin intensity after treatment with SLC-D011 (AG03198, 500nM, single replicates (Fig S7C)): 2.58 AU and 0.9 AU and 1.03 AU | Progerin intensity after treatment with SLC-D011, Ave (AG03198, 1μM, average (Fig S7C)): 0.68 AU | Progerin intensity after treatment with SLC-D011 (AG03198, 1μM, single replicates (Fig S7C)): 1.32 AU and 0.45 AU and 0.27 AU | Progerin intensity after treatment with chemicals, Ave (AG03198, 2μM): 1.893 AU | Progerin intensity after treatment with SLC-D011, Ave (AG03198, 2μM, average (Fig S7C)): 0.14 AU | Progerin intensity after treatment with chemicals (AG03198, 2μM): 1.798 AU and 1.397 AU and 2.484 AU | Progerin intensity after treatment with SLC-D011 (AG03198, 2μM, single replicates (Fig S7C)): 0 AU and 0.23 AU and 0.19 AU | Progerin intensity after treatment with chemicals, Ave (AG03198, 5μM): 0.1657 AU | Progerin intensity after treatment with SLC-D011, Ave (AG03198, 5μM, average (Fig S7C)): 0.02333 AU | Progerin intensity after treatment with chemicals (AG03198, 5μM): 0 AU and 0.123 AU and 0.3741 AU | Progerin intensity after treatment with SLC-D011 (AG03198, 5μM, single replicates (Fig S7C)): 0 AU (2×) and 0.07 AU | Progerin intensity after treatment with SLC-D011, Ave (AG11498, 10nM, average (Fig S7C)): 6.647 AU | Progerin intensity after treatment with SLC-D011 (AG11498, 10nM, single replicates (Fig S7C)): 6.56 AU and 6.24 AU and 7.14 AU | Progerin intensity after treatment with SLC-D011, Ave (AG11498, 50nM, average (Fig S7C)): 4.11 AU | Progerin intensity after treatment with SLC-D011 (AG11498, 50nM, single replicates (Fig S7C)): 2.38 AU and 3.5 AU and 6.45 AU | Progerin intensity after treatment with SLC-D011, Ave (AG11498, 100nM, average (Fig S7C)): 1.733 AU | Progerin intensity after treatment with SLC-D011 (AG11498, 100nM, single replicates (Fig S7C)): 0 AU and 1.5 AU and 3.7 AU | Progerin intensity after treatment with SLC-D011, Ave (AG11498, 500nM, average (Fig S7C)): 0.9 AU | Progerin intensity after treatment with SLC-D011 (AG11498, 500nM, single replicates (Fig S7C)): 0 AU and 0.6 AU and 2.1 AU | Progerin intensity after treatment with SLC-D011, Ave (AG11498, 1μM, average (Fig S7C)): 0.4533 AU | Progerin intensity after treatment with SLC-D011 (AG11498, 1μM, single replicates (Fig S7C)): 0 AU (2×) and 1.36 AU | Progerin intensity after treatment with SLC-D011, Ave (AG11498, 2μM, average (Fig S7C)): 0.3333 AU | Progerin intensity after treatment with SLC-D011 (AG11498, 2μM, single replicates (Fig S7C)): 0 AU (2×) and 1 AU | Progerin intensity after treatment with SLC-D011, Ave (AG11498, 5μM, average (Fig S7C)): 0.25 AU | Progerin intensity after treatment with SLC-D011 (AG11498, 5μM, single replicates (Fig S7C)): 0 AU (2×) and 0.75 AU | Progerin intensity after treatment with SLC-D011, Ave (AG11498, average (Fig S3H)): 1.892 AU | Progerin intensity after treatment with SLC-D011 (AG11498, single replicates (Fig S3H)): 5.217 AU and 0.1632 AU and 0.2958 AU | Progerin intensity after treatment with SLC-D011, Ave (AG11513, 10nM, average (Fig S7C)): 5.123 AU | Progerin intensity after treatment with SLC-D011 (AG11513, 10nM, single replicates (Fig S7C)): 2.96 AU and 6.48 AU and 5.93 AU | Progerin intensity after treatment with SLC-D011, Ave (AG11513, 50nM, average (Fig S7C)): 3.793 AU | Progerin intensity after treatment with SLC-D011 (AG11513, 50nM, single replicates (Fig S7C)): 3.06 AU and 4.3 AU and 4.02 AU | Progerin intensity after treatment with SLC-D011, Ave (AG11513, 100nM, average (Fig S7C)): 2.487 AU | Progerin intensity after treatment with SLC-D011 (AG11513, 100nM, single replicates (Fig S7C)): 2.07 AU and 2.27 AU and 3.12 AU | Progerin intensity after treatment with SLC-D011, Ave (AG11513, 500nM, average (Fig S7C)): 1.19 AU | Progerin intensity after treatment with SLC-D011 (AG11513, 500nM, single replicates (Fig S7C)): 0.81 AU and 1.08 AU and 1.68 AU | Progerin intensity after treatment with SLC-D011, Ave (AG11513, 1μM, average (Fig S7C)): 0.59 AU | Progerin intensity after treatment with SLC-D011 (AG11513, 1μM, single replicates (Fig S7C)): 0.55 AU and 0.6 AU and 0.62 AU | Progerin intensity after treatment with SLC-D011, Ave (AG11513, 2μM, average (Fig S7C)): 0.2167 AU | Progerin intensity after treatment with SLC-D011 (AG11513, 2μM, single replicates (Fig S7C)): 0.27 AU and 0.22 AU and 0.16 AU | Progerin intensity after treatment with SLC-D011, Ave (AG11513, 5μM, average (Fig S7C)): 0.09 AU | Progerin intensity after treatment with SLC-D011 (AG11513, 5μM, single replicates (Fig S7C)): 0.2 AU and 0 AU and 0.07 AU | Progerin intensity after treatment with SLC-D011, Ave (AG11513, average (Fig S3H)): 1.455 AU | Progerin intensity after treatment with SLC-D011 (AG11513, single replicates (Fig S3H)): 1.494 AU and 1.1106 AU and 1.761 AU | Concentration enough for eliminating progerin (HGPS cells): 100 nM | Effect on progerin expression (HGPS cells): reduce progerin expression | Progerin intensity after treatment with SLC-D011, Ave (N9, average (Fig S3H)): 0 AU | Progerin intensity after treatment with SLC-D011 (N9, single replicates (Fig S3H)): 0 AU

CC1(C)Oc2cc3oc(=O)ccc3cc2CC1OC(=O)C=Cc1cccnc1 (stereo not shown) [JH4]
Progerin intensity after treatment with chemicals, Ave (AG03198, 2μM): 15.1057 AU | Progerin intensity after treatment with chemicals (AG03198, 2μM): 13.2274 AU and 13.4377 AU and 18.652 AU | Progerin intensity after treatment with chemicals, Ave (AG03198, 5μM): 4.247 AU | Progerin intensity after treatment with chemicals (AG03198, 5μM): 1.2854 AU and 1.491 AU and 9.966 AU
